Marks after values point to notes of the source that are not given here.
Assays:
Assay type in all cases: in vivo, SD rats
[1] = tested on: rat models with focal cerebral ischemia-reperfusion (tMCAO); assay: Percentage of cerebral infarction area (TTC staining) in tMCAO model rats; details: Gavage, about 24 h after last administration, x ± s
Procedure: (§1) Rat models with focal cerebral ischemia-reperfusion (tMCAO) were prepared by using a suture-occluded method, and therapeutic effects of the test drugs on the tMCAO model rats were investigated.
(§2) A specific modeling method for the rat models with focal cerebral ischemia-reperfusion (tMCAO) is as follows. At 12 h before surgery, the rats were fed at about 30 g/piece. After induced anesthesia with 3-4% isoflurane and maintained anesthesia with 1.5-2.5% isoflurane were performed, the rats were placed at supine positions on an operating table at a constant temperature of 37° C. The skin in middle lines of necks was cut, subcutaneous tissues and muscles were bluntly separated, and common carotid arteries on right sides, internal carotid arteries and external carotid arteries were separated. Two ligation threads were allowed to penetrate through the external carotid arteries to ligate distal ends, an artery clamp was placed at the common carotid arteries and the internal carotid arteries, respectively, small incisions were made at 45° diagonally on the external carotid arteries at about 4 mm away from bifurcations of the common carotid arteries, and suitable suture occlusions were inserted to gently ligate proximal ends. The external carotid arteries were cut, directions and angles of the suture occlusions were adjusted, the suture occlusions were gently pushed and inserted into the internal carotid arteries, and then the artery clamps were released. The suture occlusions were continuously inserted until black dot marks of the suture occlusions reached junctions of the internal carotid arteries and the common carotid arteries at a length of about 18-20 mm. The proximal ends of the external carotid arteries were tightened, the suture occlusions were fixed, the skin was sutured after it was confirmed that there was no bleeding, the body temperature of the rats was maintained, and meloxicam as an analgesic drug was injected subcutaneously at 1 mg/kg.
(§3) At 2 h after ischemia, induced anesthesia with 3-4% isoflurane and maintained anesthesia with 1.5-2.5% isoflurane were performed, the skin sutures were cut, the ligation threads at the proximal ends of the external carotid arteries were opened, the suture occlusions were taken out, reperfusion was performed, ligation was performed again, and the skin was sutured after it was confirmed that there was no bleeding. In a sham-operated control group, other steps were the same as above except that the suture occlusions were inserted and pulled out immediately and the reperfusion was not required. After the surgery, the rats were allowed to lie prostrate and return to a cage.
(§4) When the animals were awake after modeling, behavioral scoring was performed on the animals with reference to a 4-point scoring standard of Zea longa. The animals with scores of 1-3 points were judged as successfully modeled animals, and the animals not meeting requirements were eliminated.
(§5) Method: SPF-grade male SD rats were used, the various tMCAO rat models were prepared by using the suture-occluded method, and the successfully modeled animals were randomly divided into 6 groups including a model control group, a test drug group 1, a test drug group 2, a test drug group 3, a test drug group 4 and a test drug group 5, with 6 or more animals in each group. In addition, the sham-operated control group was set, which involved 6 animals with the suture occlusions inserted and pulled out immediately in the surgery. […]

[2] = tested on: rat models with focal cerebral ischemia-reperfusion (tMCAO); assay: Rotarod test (latent period of falling) in tMCAO model rats; details: Gavage, 3 × 10^−5 mol/kg, 3 administrations, about 24 h after last administration, x ± s
Procedure: as §1, §2, §3, §4, §5

[3] = tested on: rat models with focal cerebral ischemia-reperfusion (tMCAO); assay: Behavioral scoring of tMCAO model rats; details: about 24 h after last administration, x ± s
Procedure: as §1, §2, §3, §4, §5

[4] = tested on: rat models with focal cerebral ischemia-reperfusion (tMCAO); assay: Cerebral blood flow in tMCAO model rats; details: x ± s; for Cerebral blood flow 24 h after last administration / Cerebral blood flow improvement percentage / Recovery percentage of cerebral blood flow 24 h after last administration: 24 h after last of 3 administrations, 3×10^−5 mol/kg; for Cerebral blood flow before administration / Decrease percentage of cerebral blood flow before administration: after ischemia, before first administration; for Cerebral blood flow before ischemia: baseline before surgery, before any administration
Procedure: as §1, §2, §3, §4
as §5, with “surgery. At 4 h after the cerebral ischemia (at 4 h after the suture occlusions were pulled out in the sham-operated group), the various groups were given the various drugs or a vehicle for the first time. In each group, an administration dose was 3×10^−5 mol/kg, an administration volume was 3 mL/kg, administration was performed for a total of 3 times, and an administration time interval of every two times was 24 h.” for “surgery.”

[5] = tested on: rat models with focal cerebral ischemia-reperfusion (tMCAO); assay: Drug efficacy test in tMCAO model rats, overall result; details: latent period of falling, behavioral scores, infarction area, cerebral blood flow
Procedure: as §1
A specific modeling method for the rat models with focal cerebral ischemia-reperfusion (tMCAO) is as follows. At 12 h before surgery, the rats were fed at about 30 g/piece. After induced anesthesia with 3-4% isoflurane and maintained anesthesia with 1.5-2.5% isoflurane were performed, the rats were placed at supine positions on an operating table at a constant temperature of 37° C. The skin in middle lines of necks was cut, subcutaneous tissues and muscles were bluntly separated, and common carotid arteries on right sides, internal carotid arteries and external carotid arteries were separated. Two ligation threads were allowed to penetrate through the external carotid arteries to ligate distal ends, an artery clamp was placed at the common carotid arteries and the internal carotid arteries, respectively, small incisions were made at 45° diagonally on the external carotid arteries at about 4 mm away from bifurcations of the common carotid arteries, and suitable suture occlusions were inserted to gently ligate proximal ends. […]

## Cc1cc(OC(=O)c2cccnc2)n(-c2nc(C)c(C)nc2C)n1 [Test drug 1, 3-methyl-1-(3,5,6-trimethylpyrazin-2-yl)-1H-pyrazol-5-nicotinate]
[1]; 3 × 10^−5 mol/kg
  Percentage of cerebral infarction area: 4.6 ± 1.2 %
[2]
  Latent period of falling (rotarod test): 48.7 ± 14.0 s
[3]; route printed as Intravenous injection and Gavage, 3 × 10^−5 mol/kg
  Behavioral score: 1.9 ± 0.6
[4]
  Cerebral blood flow 24 h after last administration: 304.8 ± 12.7 BPU
  Cerebral blood flow improvement percentage: 28.7 ± 4.9 %
  Recovery percentage of cerebral blood flow 24 h after last administration: 87.8 ± 2.0 %
  Cerebral blood flow before administration: 204.6 ± 10.3 BPU
  Decrease percentage of cerebral blood flow before administration: 40.9 ± 5.2%
  Cerebral blood flow before ischemia: 347.5 ± 19.3 BPU

## CC(=O)Oc1cc(C)nn1-c1nc(C)c(C)nc1C [Test drug 2, 3-methyl-1-(3,5,6-trimethylpyrazin-2-yl)-1H-pyrazol-5-acetate]
[1]; 3 × 10^−5 mol/kg
  Percentage of cerebral infarction area: 5.8 ± 2.2 %
[2]
  Latent period of falling (rotarod test): 35.2 ± 23.3 s
[3]; Gavage, 3 × 10^−5 mol/kg
  Behavioral score: 2.3 ± 0.7
[4]
  Cerebral blood flow 24 h after last administration: 367.8 ± 36.9 BPU
  Cerebral blood flow improvement percentage: 20.9 ± 13.8 %
  Recovery percentage of cerebral blood flow 24 h after last administration: 79.3 ± 8.9 %
  Cerebral blood flow before administration: 213.3 ± 16.6 BPU
  Decrease percentage of cerebral blood flow before administration: 41.6 ± 8.6%
  Cerebral blood flow before ischemia: 371.8 ± 51.6 BPU

## CC(=O)Oc1ccccc1C(=O)Oc1cc(C)nn1-c1nc(C)c(C)nc1C [Test drug 3, 3-methyl-1-(3,5,6-trimethylpyrazin-2-yl)-1H-pyrazol-5-yl-2-acetoxybenzoate]
[1]; 6 × 10^−5 mol/kg
  Percentage of cerebral infarction area: 3.5 ± 1.6**^& %
[2]
  Latent period of falling (rotarod test): 49.7 ± 12.3 s
[5]
  Overall therapeutic effect in tMCAO rats (in words; vs model control group and between test drug groups): better than the groups 2 and 5
[3]; Gavage, 6 × 10^−5 mol/kg
  Behavioral score: 1.6 ± 0.7
[4]
  Cerebral blood flow 24 h after last administration: 321.4 ± 54.0 BPU
  Cerebral blood flow improvement percentage: 30.3 ± 7.1 %
  Recovery percentage of cerebral blood flow 24 h after last administration: 90.1 ± 4.2**^&& %
  Cerebral blood flow before administration: 210.3 ± 15.1 BPU
  Decrease percentage of cerebral blood flow before administration: 40.1 ± 6.3%
  Cerebral blood flow before ischemia: 356.5 ± 56.6 BPU

## Cc1cc(OC(=O)c2ccccc2)n(-c2nc(C)c(C)nc2C)n1 [Test drug 4, 3-methyl-1-(3,5,6-trimethylpyrazin-2-yl)-1H-pyrazol-5-yl-benzoate]
[1]; 3 × 10^−5 mol/kg
  Percentage of cerebral infarction area: 4.5 ± 2.5 %
[2]
  Latent period of falling (rotarod test): 43.8 ± 14.9 s
[5]
  Overall therapeutic effect in tMCAO rats (in words; vs model control group and between test drug groups): better than the groups 2 and 5
[3]; Gavage, 3 × 10^−5 mol/kg
  Behavioral score: 1.7 ± 0.7
[4]
  Cerebral blood flow 24 h after last administration: 321.2 ± 17.0 BPU
  Cerebral blood flow improvement percentage: 27.0 ± 7.3 %
  Recovery percentage of cerebral blood flow 24 h after last administration: 87.0 ± 5.8**^& %
  Cerebral blood flow before administration: 220.8 ± 16.4 BPU
  Decrease percentage of cerebral blood flow before administration: 40.0 ± 7.1%
  Cerebral blood flow before ischemia: 370.2 ± 17.2 BPU

## Cc1cc(OC(=O)C(C)(C)C)n(-c2nc(C)c(C)nc2C)n1 [Test drug 5, 3-methyl-1-(3,5,6-trimethylpyrazin-2-yl)-1H-pyrazol-5-pivalate]
[1]; 6 × 10^−5 mol/kg
  Percentage of cerebral infarction area: 2.9 ± 1.0 %
[2]
  Latent period of falling (rotarod test): 31.5 ± 14.5^ s
[3]; Gavage, 6 × 10^−5 mol/kg
  Behavioral score: 2.7 ± 0.9
[4]
  Cerebral blood flow 24 h after last administration: 275.0 ± 20.5 BPU
  Cerebral blood flow improvement percentage: 21.2 ± 4.7*^ %
  Recovery percentage of cerebral blood flow 24 h after last administration: 81.6 ± 5.9**^ %
  Cerebral blood flow before administration: 203.3 ± 8.1 BPU
  Decrease percentage of cerebral blood flow before administration: 39.5 ± 4.4%
  Cerebral blood flow before ischemia: 337.9 ± 26.0 BPU

From patent US20260159510A1, “HETEROCYCLIC COMPOUND, PREPARATION METHOD THEREFOR AND USE THEREOF” (GUANGZHOU DAGUANG PHARMACEUTICAL CO., LTD., priority 2022, published 2026)
